Where no end group is shown, it is not given here.
Test system: HeLa-654 cells
Experiment: HeLa-654 eGFP assay (flow cytometry: mean fluorescence, gated cell count, F×C)
Assay type: cell-based, human
Method: With the 36 constructs synthesized, the ability to modulate PMO activity using the modified HeLa cell assay was tested. The HeLa-654 cells were stably transfected to express a nonfluorescent eGFP protein. The eGFP gene is interrupted by a mutant intron from the human β-globin gene (IVS2-654). The insertion alters pre-mRNA splicing to cause retention of a fragment in the mature mRNA that results in a nonfluorescent protein. PMO IVS2-654 base-pairs with the β-globin insertion, modifies mRNA splicing, and thereby leads to expression of fluorescent eGFP.
For treatment, the crude reaction mixture was diluted to 5 μM in media. The concentration of the modular construct was calculated based on the original concentration of the module 1-2 conjugate mixed in the reaction. Using media containing 10% fetal bovine serum (FBS), the cells were treated with each construct for 22 hours, after which the cellular fluorescence was measured by flow cytometry.
The different modules led to several noticeable trends in the level of cellular fluorescence (FIG. 4). When module 2 was DPV6, the overall construct consistently led to high fluorescence, regardless of which peptides were placed in module 3 and 4. However, when either pVEC or TP10 was placed in module 2, minor cellular fluorescence was observed. […]

Substance: W/R: W/R peptide (RRWWRRWRR) conjugated to PMO on its own (also: conjugated to PMO (position not given here))
- activity relative to PMO by itself (single peptide conjugated to PMO on its own): around 3 ×

Substance: copper
- cell viability, in words (low micromolar concentrations of copper in cell culture): did not affect cell viability

— patent publication US12168059B2, “Trimeric peptides for antisense delivery” (Sarepta Therapeutics, Inc., priority 2018, dated 2024)
